Where no end group is shown, it is not given here.
Legend:
[1] = tested on: E. coli K-12 strain W3110; format: cell-based, Escherichia coli
[2] = tested on: E. coli conferring New-Delhi metallo-beta-lactamase (NDM) resistance; conditions: 10mM Tris (pH7.4) + 25mM NaCl, 20 hours, 37°C, at least 99.9% killing of inoculum; representative of three independent experiments
[3] = tested on: E. coli W3110, Acinetobacter baumannii (Ab 5075), Pseudomonas aeruginosa (PA14), NDM E. coli; conditions: 20 h
E. coli = assay: SLAY screen of a defined library of five surface-displayed peptides; format: cell-based, Escherichia coli

Row | Compound | effect of surface-displayed peptide on growth [1] | MBC NDM E. coli [2] | further results
1 | CC(C)C[C@H](NC(=O)[C@H](CCCNC(=N)N)NC(=O)CNC(=O)CNC(=O)[C@@H](N)CCCNC(=N)N)C(=O)N[C@H]1CSSC[C@@H](C(=O)N[C@H](C(=O)NCC(=O)N[C@@H](CCCNC(=N)N)C(N)=O)C(C)C)NC(=O)[C@H](C(C)C)NC(=O)[C@@H]2CSSC[C@H](NC(=O)[C@H](Cc3ccc(O)cc3)NC1=O)C(=O)N[C@@H](CCCNC(=N)N)C(=O)N[C@@H](CCCNC(=N)N)C(=O)N[C@@H](CCCNC(=N)N)C(=O)N[C@@H](Cc1ccccc1)C(=O)N2 [Protegrin 1] | strong antimicrobial activity |  | 
2 | DATPHAALFFTVKDHTAGDN [Peptide P15] |  | 64 µM | 
3 | LPLPSCSSHGGDADNTSQRN [Peptide P11] |  | 32 µM | 
4 | RLVRILVSKRPVAIKPYFRL [Peptide P1] |  |  | MBC over all bacteria tested [3]: less than 2 μM
5 | YPYDVPDYAAYPYDVPDYAA [Peptide 2xHA] | grew similarly at all IPTG concentrations |  | log2 fold (E. coli): −0.01
6 | dermaseptin | strong antimicrobial activity |  | 

— paper PMC5786472 (Cell, 2018)
